According to ChEMBL document CHEMBL1201862, “PubChem BioAssay data set” (2004):
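In this assay, cells in 96-well plates receive the compound at five concentrations for 48 hours. Endpoints are linearly interpolated between the surrounding concentrations. GI50 = concentration required for 50% inhibition of growth.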 The source made the active and inactive calls. No stated cut-off is given here; in the data, active = GI50 up to about 1.1 µM and inactive = higher.

Columns and labels:
Assay in all cases: NCI anticancer screen, dose series, 48 h
786-0 = test system: 786-0
A549 = test system: A549
ACHN = test system: ACHN
BT-549 = test system: BT-549
CAKI-1 = test system: CAKI-1
COLO 205 = test system: COLO 205
DU-145 = test system: DU-145
HCT-116 = test system: HCT-116
HCT-15 = test system: HCT-15
HOP-62 = test system: HOP-62
K562 = test system: K562
KM12 = test system: KM12
MCF7 = test system: MCF7
MDA-N = test system: MDA-N
MOLT-4 = test system: MOLT-4
NCI-H23 = test system: NCI-H23
OVCAR-3 = test system: OVCAR-3
OVCAR-5 = test system: OVCAR-5
OVCAR-8 = test system: OVCAR-8
PC-3 = test system: PC-3
RPMI-8226 = test system: RPMI-8226
SF-295 = test system: SF-295
SK-MEL-2 = test system: SK-MEL-2
SK-MEL-5 = test system: SK-MEL-5
SNB-19 = test system: SNB-19
UACC-257 = test system: UACC-257
UACC-62 = test system: UACC-62
UO-31 = test system: UO-31
HL-60 = test system: HL-60
IGROV-1 = test system: IGROV-1
SR = test system: SR
EKVX = test system: EKVX
HCC 2998 = test system: HCC 2998
HT-29 = test system: HT-29
Hs-578T = test system: Hs-578T
LOX IMVI = test system: LOX IMVI
M14 = test system: M14
MDA-MB-231 = test system: MDA-MB-231
MDA-MB-435 = test system: MDA-MB-435
Malme-3M = test system: Malme-3M
NCI-H460 = test system: NCI-H460
NCI-H522 = test system: NCI-H522
NCI/ADR-RES = test system: NCI/ADR-RES
OVCAR-4 = test system: OVCAR-4
RXF 393 = test system: RXF 393
SK-MEL-28 = test system: SK-MEL-28
SK-OV-3 = test system: SK-OV-3
SN12C = test system: SN12C
SNB-75 = test system: SNB-75
SW-620 = test system: SW-620
T47D = test system: T47D
TK-10 = test system: TK-10
U-251 = test system: U-251
A498 = test system: A498
CCRF-CEM = test system: CCRF-CEM
HOP-92 = test system: HOP-92
NCI-H226 = test system: NCI-H226
SF-268 = test system: SF-268
SF-539 = test system: SF-539

For `Cc1ccc(Cl)c2c(=O)c3ccc([N+](=O)[O-])cc3sc12`, the GI50 (786-0) was > 100 µM (inactive), the GI50 (A549) was > 100 µM (inactive) and the GI50 (ACHN) was > 100 µM (inactive). The GI50 (BT-549) was > 100 µM (inactive), the GI50 (CAKI-1) was > 100 µM (inactive) and the GI50 (COLO 205) was > 100 µM (inactive). For the same compound, the GI50 (DU-145) was > 100 µM (inactive), the GI50 (HCT-116) was > 100 µM (inactive) and the GI50 (HCT-15) was > 100 µM. The GI50 (HOP-62) was 79.8 µM (inactive), the GI50 (K562) was > 100 µM (inactive) and the GI50 (KM12) was > 100 µM (inactive). For the same compound, the GI50 (MCF7) was > 100 µM (inactive), the GI50 (MDA-N) was > 100 µM (inactive) and the GI50 (MOLT-4) was > 100 µM (inactive). The GI50 (NCI-H23) was > 100 µM (inactive), the GI50 (OVCAR-3) was > 100 µM (inactive) and the GI50 (OVCAR-5) was > 100 µM (inactive). The GI50 (OVCAR-8) was > 100 µM (inactive), the GI50 (PC-3) was > 100 µM (inactive) and the GI50 (RPMI-8226) was > 100 µM (inactive). The GI50 (SF-295) was 82.2 µM (inactive), the GI50 (SK-MEL-2) was > 100 µM (inactive) and the GI50 (SK-MEL-5) was > 100 µM (inactive). The GI50 (SNB-19) was > 100 µM (inactive), the GI50 (UACC-257) was > 100 µM (inactive) and the GI50 (UACC-62) was > 100 µM (inactive). The GI50 (UO-31) was > 100 µM (inactive).
For `Oc1cccc2cccnc12`, the GI50 (BT-549) was 61.1 µM (inactive), the GI50 (HL-60) was 0.294 µM (active) and the GI50 (IGROV-1) was 4.27 µM (inactive). The GI50 (RPMI-8226) was 0.918 µM (active), the GI50 (SK-MEL-5) was 4.86 µM (inactive) and the GI50 (SR) was 0.342 µM (active).
`Nc1ccc(-c2nn3c(COc4ccc(Cl)cc4)nnc3s2)cc1` was tested, and the GI50 (786-0) was > 100 µM (inactive), the GI50 (A549) was > 100 µM (inactive) and the GI50 (ACHN) was > 100 µM (inactive). For the same compound, the GI50 (CAKI-1) was 54.2 µM (inactive), the GI50 (COLO 205) was 74.5 µM (inactive) and the GI50 (DU-145) was > 100 µM (inactive). The GI50 (EKVX) was 86.9 µM (inactive), the GI50 (HCC 2998) was > 100 µM (inactive) and the GI50 (HCT-15) was > 100 µM. For the same compound, the GI50 (HL-60) was > 100 µM (inactive), the GI50 (HT-29) was > 100 µM (inactive) and the GI50 (Hs-578T) was 25.3 µM (inactive). The GI50 (IGROV-1) was > 100 µM (inactive), the GI50 (K562) was > 100 µM (inactive) and the GI50 (LOX IMVI) was > 100 µM (inactive). For the same compound, the GI50 (M14) was > 100 µM (inactive), the GI50 (MDA-MB-231) was 87.3 µM (inactive) and the GI50 (MDA-MB-435) was 62.2 µM (inactive). For the same compound, the GI50 (MOLT-4) was 51.3 µM (inactive), the GI50 (Malme-3M) was > 100 µM (inactive) and the GI50 (NCI-H23) was > 100 µM (inactive). For the same compound, the GI50 (NCI-H460) was 40 µM (inactive), the GI50 (NCI-H522) was 65 µM (inactive) and the GI50 (NCI/ADR-RES) was > 100 µM (inactive). The GI50 (OVCAR-3) was > 100 µM (inactive), the GI50 (OVCAR-4) was > 100 µM (inactive) and the GI50 (OVCAR-5) was > 100 µM (inactive). For the same compound, the GI50 (OVCAR-8) was > 100 µM (inactive), the GI50 (PC-3) was 88.7 µM (inactive) and the GI50 (RPMI-8226) was 77.6 µM (inactive). The GI50 (RXF 393) was 49.3 µM (inactive), the GI50 (SF-295) was 56.9 µM (inactive) and the GI50 (SK-MEL-28) was > 100 µM (inactive). The GI50 (SK-MEL-2) was > 100 µM (inactive), the GI50 (SK-MEL-5) was > 100 µM (inactive) and the GI50 (SK-OV-3) was > 100 µM (inactive). For the same compound, the GI50 (SN12C) was > 100 µM (inactive), the GI50 (SNB-19) was 88.1 µM (inactive) and the GI50 (SNB-75) was > 100 µM (inactive). The GI50 (SW-620) was > 100 µM (inactive), the GI50 (T47D) was > 100 µM (inactive) and the GI50 (TK-10) was > 100 µM (inactive). For the same compound, the GI50 (U-251) was > 100 µM (inactive), the GI50 (UACC-257) was > 100 µM (inactive) and the GI50 (UACC-62) was > 100 µM (inactive). For the same compound, the GI50 (UO-31) was 84.9 µM (inactive).
With `Cc1cccc(NC(=S)N/N=C2\C(=O)Nc3ccccc32)c1` the GI50 (786-0) was 59.4 µM (inactive), the GI50 (A498) was 29.7 µM (inactive) and the GI50 (A549) was 59.4 µM (inactive). The GI50 (ACHN) was 43.1 µM (inactive), the GI50 (CAKI-1) was 38.2 µM (inactive) and the GI50 (CCRF-CEM) was 55 µM (inactive). For the same compound, the GI50 (COLO 205) was 78.3 µM (inactive), the GI50 (DU-145) was 14.1 µM (inactive) and the GI50 (EKVX) was 31.3 µM (inactive). The GI50 (HCC 2998) was > 100 µM (inactive), the GI50 (HCT-116) was 44.9 µM (inactive) and the GI50 (HCT-15) was 73.8 µM. The GI50 (HL-60) was 67.8 µM (inactive), the GI50 (HOP-62) was 62.7 µM (inactive) and the GI50 (HOP-92) was > 100 µM (inactive). The GI50 (HT-29) was > 100 µM (inactive), the GI50 (Hs-578T) was > 100 µM (inactive) and the GI50 (IGROV-1) was 49.3 µM (inactive). The GI50 (K562) was 65.8 µM (inactive), the GI50 (KM12) was 39 µM (inactive) and the GI50 (LOX IMVI) was 51.4 µM (inactive). The GI50 (M14) was 60.8 µM (inactive), the GI50 (MCF7) was > 100 µM (inactive) and the GI50 (MDA-MB-231) was > 100 µM (inactive). The GI50 (MDA-MB-435) was 80.4 µM (inactive), the GI50 (MDA-N) was > 100 µM (inactive) and the GI50 (MOLT-4) was 59 µM (inactive). For the same compound, the GI50 (Malme-3M) was 66.1 µM (inactive), the GI50 (NCI-H226) was > 100 µM (inactive) and the GI50 (NCI-H23) was > 100 µM (inactive). The GI50 (NCI-H460) was 48.3 µM (inactive), the GI50 (NCI-H522) was > 100 µM (inactive) and the GI50 (NCI/ADR-RES) was 29.9 µM (inactive). For the same compound, the GI50 (OVCAR-3) was 32.3 µM (inactive), the GI50 (OVCAR-4) was 34.9 µM (inactive) and the GI50 (OVCAR-5) was > 100 µM (inactive). For the same compound, the GI50 (OVCAR-8) was > 100 µM (inactive), the GI50 (PC-3) was 68.4 µM (inactive) and the GI50 (RPMI-8226) was > 100 µM (inactive). For the same compound, the GI50 (RXF 393) was 30.1 µM (inactive), the GI50 (SF-268) was 4.98 µM (inactive) and the GI50 (SF-295) was 56.9 µM (inactive). For the same compound, the GI50 (SF-539) was 48.3 µM (inactive), the GI50 (SK-MEL-28) was 16.1 µM (inactive) and the GI50 (SK-MEL-2) was 70.6 µM (inactive). The GI50 (SK-MEL-5) was 23.3 µM (inactive), the GI50 (SK-OV-3) was > 100 µM (inactive) and the GI50 (SN12C) was 91.4 µM (inactive). The GI50 (SNB-19) was > 100 µM (inactive), the GI50 (SNB-75) was 63.1 µM (inactive) and the GI50 (SR) was 70.3 µM (inactive). The GI50 (SW-620) was > 100 µM (inactive), the GI50 (T47D) was > 100 µM (inactive) and the GI50 (U-251) was 61.8 µM (inactive). For the same compound, the GI50 (UACC-257) was > 100 µM (inactive), the GI50 (UACC-62) was > 100 µM (inactive) and the GI50 (UO-31) was 63.2 µM (inactive).
